# Measured values as given in publication PMC4358979, “Structure-Based Virtual Screening and Discovery of New PPARδ/γ Dual Agonist and PPARδ and γ Agonists” (PLoS ONE, 2015).
# Molecular target: T1, PPARδ (Homo sapiens, UniProt Q03181)
# T1 construct: gene PPARD; pcDNA3-PPARδ expressed in HeLa cells
# T1 sequence (Q03181 1-441): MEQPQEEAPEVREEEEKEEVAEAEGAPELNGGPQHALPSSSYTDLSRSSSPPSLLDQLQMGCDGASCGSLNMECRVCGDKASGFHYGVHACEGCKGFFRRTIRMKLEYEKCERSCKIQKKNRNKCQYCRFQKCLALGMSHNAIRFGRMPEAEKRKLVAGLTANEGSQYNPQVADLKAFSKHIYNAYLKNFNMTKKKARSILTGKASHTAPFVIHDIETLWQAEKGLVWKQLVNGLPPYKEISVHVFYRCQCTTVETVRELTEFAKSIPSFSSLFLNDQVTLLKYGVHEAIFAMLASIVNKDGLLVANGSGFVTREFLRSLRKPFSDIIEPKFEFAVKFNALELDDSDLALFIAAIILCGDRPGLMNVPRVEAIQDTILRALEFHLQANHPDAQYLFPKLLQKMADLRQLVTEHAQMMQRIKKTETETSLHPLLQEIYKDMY
# Experiment: PPRE-luciferase transactivation assay in HeLa cells, single concentration ([…])
# Assay type: cell-based
# Details: read-out: PPRE-luciferase transactivation assay in HeLa cells, single concentration (10 μM)
smiles,measurement,value
"Cc1ccc(Cn2c(=N)n(CC(=O)O)c3ccccc32)cc1 [compound 5, [2-imino-3-(4-methylbenzyl)-2,3-dihydro-1H-benzimidazol-1-yl]acetic acid]",fold induction at 10 µM,6.4
